System: bovine cardiac myofibrils
Experiment: Myofibril assay: PK/LDH-coupled steady-state ATPase activity of skinned bovine cardiac myofibrils
Type: biochemical
Settings: Ca2+ activating to 75% of maximal rate
Method: To evaluate the effect of compounds on the ATPase activity of full-length cardiac myosin in the context of the native sarcomere, skinned myofibril assays were performed. Bovine cardiac myofibrils were obtained by homogenizing bovine cardiac left ventricular tissue in the presence of a detergent such as triton X-100. Such treatment removes membranes and a majority of the soluble cytoplasmic proteins but leaves intact the cardiac sarcomeric acto-myosin apparatus. Myofibril preparations retain the ability to hydrolyze ATP in a Ca^2+ regulated manner. ATPase activities of such myofibril preparations in the presence and absence of compounds were assayed at Ca^2+ concentrations activating to a defined fraction of the maximal rate (i.e., […], 75%). Small molecule agents were assessed for their ability to inhibit the steady-state ATPase activity of bovine cardiac myofibrils using pyruvate kinase and lactate dehydrogenase (PK/LDH)-coupled enzyme system. This assay regenerates myosin-produced ADP into ATP by oxidizing NADH, producing an absorbance change at 340 nm. Prior to testing small molecule agents, the bovine cardiac myofibrils were assessed for their calcium responsiveness and the calcium concentration that achieves either a 50% (pCa50) or 75% (pCa75) activation of the myofibril system was chosen as the final condition for assessing the inhibitory activity of the small molecule agents. All enzymatic activity was measured in a buffered solution containing 12 mM PIPES (piperazine-N,N′-bis(2-ethanesulfonic acid), 2 mM magnesium chloride at pH 6.8 (PM 12 buffer). Final assay conditions were 1 mg/mL of bovine cardiac myofibrils, 4 U/mL pyruvate kinase, 6 U/mL lactate dehydrogenase, 50 μM ATP, 0.1 mg/mL BSA (bovine serum albumin), 10 ppm antifoam, 1 mM DTT, 0.5 mM NADH, 1.5 mM PEP, 0.6 mM EGTA, and an amount of CaCl2 sufficient to achieve either 50% or 75% activation of the myofibril ATPase activity. Results for compounds tested are provided in Table A. Compounds tested were prepared in accordance with the synthetic procedures described herein.

| CDMF75 IC15 [nM] | SMILES | further results |
| --- | --- | --- |
| >39000 | O=C1C(C2CC(O)C2)N(Cc2ccc(F)cc2)C(=O)CN1c1ccc(Cl)cc1F (single isomer, unassigned) [Compound 866B, 1-(4-chloro-2-fluorophenyl)-4-(4-fluorobenzyl)-3-(3-hydroxycyclobutyl)piperazine-2,5-dione] |  |
| 2300 | O=C1C(C2CC(O)C2)N(Cc2ccc(F)cc2)C(=O)CN1c1ccc(Cl)cc1F (single isomer, unassigned) [Compound 866C, 1-(4-chloro-2-fluorophenyl)-4-(4-fluorobenzyl)-3-(3-hydroxycyclobutyl)piperazine-2,5-dione] |  |
| >39000 | O=C1C(C2CC(O)C2)N(Cc2ccc(F)cc2)C(=O)CN1c1ccc(Cl)cc1F (single isomer, unassigned) [Compound 866D, 1-(4-chloro-2-fluorophenyl)-4-(4-fluorobenzyl)-3-(3-hydroxycyclobutyl)piperazine-2,5-dione] |  |
| 2200 | NC(=O)[C@H]1C[C@]2(C1)C(=O)N(c1ncc(Cl)cc1F)CC(=O)N2Cc1ccc(C(F)F)cc1 (single isomer, unassigned) [Compound 875A, 8-(5-chloro-3-fluoropyridin-2-yl)-5-(4-(difluoromethyl)benzyl)-6,9-dioxo-5,8-diazaspiro[3.5]nonane-2-carboxamide] |  |
| 3200 | NC(=O)[C@H]1C[C@]2(C1)C(=O)N(c1ncc(Cl)cc1F)CC(=O)N2Cc1ccc(C(F)F)cc1 (single isomer, unassigned) [Compound 875B, 8-(5-chloro-3-fluoropyridin-2-yl)-5-(4-(difluoromethyl)benzyl)-6,9-dioxo-5,8-diazaspiro[3.5]nonane-2-carboxamide] |  |
|  | O=C1CN(c2ccc(Cl)cc2F)C(=O)C2(CC(O)C2)N1Cc1ccc(F)cc1 (single isomer, unassigned) [Diastereomer 867A, 8-(4-chloro-2-fluorophenyl)-5-(4-fluorobenzyl)-2-hydroxy-5,8-diazaspiro[3.5]nonane-6,9-dione] | CDMF75 IC15 (listed as 867A): 2100 nM |
|  | O=C1CN(c2ccc(Cl)cc2F)C(=O)C2(CC(O)C2)N1Cc1ccc(F)cc1 (single isomer, unassigned) [Diastereomer 867B, 8-(4-chloro-2-fluorophenyl)-5-(4-fluorobenzyl)-2-hydroxy-5,8-diazaspiro[3.5]nonane-6,9-dione] | CDMF75 IC15 (listed as 867B): 1700 nM |
|  | O=C1C(C23CC(O)(C2)C3)N(Cc2ccc(C(F)(F)F)cc2)C(=O)CN1c1ncc(Cl)cc1F (single isomer, unassigned) [Enantiomer 838A, 1-(5-chloro-3-fluoropyridin-2-yl)-3-(3-hydroxybicyclo[1.1.1]pentan-1-yl)-4-(4-(trifluoromethyl)benzyl)piperazine-2,5-dione] | CDMF75 IC15 (listed as 838A): 2300 nM |
|  | O=C1C(C23CC(O)(C2)C3)N(Cc2ccc(C(F)(F)F)cc2)C(=O)CN1c1ncc(Cl)cc1F (single isomer, unassigned) [Enantiomer 838B, 1-(5-chloro-3-fluoropyridin-2-yl)-3-(3-hydroxybicyclo[1.1.1]pentan-1-yl)-4-(4-(trifluoromethyl)benzyl)piperazine-2,5-dione] | CDMF75 IC15 (listed as 838B): >39000 nM |
| 1700 | N#Cc1ccc(N2CC(=O)N(Cc3ccc(Cl)cc3)C3(CCN(C(=O)C4COC4)C3)C2=O)c(F)c1 (stereo in doubt) [Compound 210, (S)-4-(6-(4-chlorobenzyl)-2-(oxetane-3-carbonyl)-7,10-dioxo-2,6,9-triazaspiro[4.5]decan-9-yl)-3-fluorobenzonitrile] |  |
| 900 | N#Cc1ccc(N2CC(=O)N(Cc3ccc(Cl)cc3)C3(CCN(C(=O)C4CCC4)C3)C2=O)c(F)c1 (stereo in doubt) [Compound 212, (S)-4-(6-(4-chlorobenzyl)-2-(cyclobutanecarbonyl)-7,10-dioxo-2,6,9-triazaspiro[4.5]decan-9-yl)-3-fluorobenzonitrile] |  |
| 400 | N#Cc1ccc(N2CC(=O)N(Cc3ccc(Cl)cc3)C3(CCN(C(=O)C4CC4)C3)C2=O)c(F)c1 (stereo in doubt) [Compound 213, (S)-4-(6-(4-chlorobenzyl)-2-(cyclopropanecarbonyl)-7,10-dioxo-2,6,9-triazaspiro[4.5]decan-9-yl)-3-fluorobenzonitrile] |  |
| 700 | N#Cc1ccc(N2CC(=O)N(Cc3ccc(C(F)(F)F)cc3)C3(CCN(C=O)C3)C2=O)c(F)c1 (stereo in doubt) [Compound 222, (S)-3-fluoro-4-(2-formyl-7,10-dioxo-6-(4-(trifluoromethyl)benzyl)-2,6,9-triazaspiro[4.5]decan-9-yl)benzonitrile] |  |
| 9500 | CC(C)N1CC(=O)N(Cc2ccc(C(F)(F)F)cc2)C2(CCN(C(=O)NC3CCC3)C2)C1=O (stereo not shown) [Compound 1, N-cyclobutyl-9-isopropyl-7,10-dioxo-6-(4-(trifluoromethyl)benzyl)-2,6,9-triazaspiro[4.5]-decane-2-carboxamide] |  |
| 1800 | CC(C)N1CC(=O)N(Cc2ccc(Cl)cc2)C2(CN(c3ccccc3)C2)C1=O [Compound 2, 5-(4-chlorobenzyl)-8-isopropyl-2-phenyl-2,5,8-triazaspiro[3.5]nonane-6,9-dione] |  |
| 1700 | CC(C)N1CC(=O)N(Cc2ccc(Cl)cc2)C2(CN(c3ccc(F)cc3)C2)C1=O [Compound 3, 5-(4-chlorobenzyl)-2-(4-fluorophenyl)-8-isopropyl-2,5,8-triazaspiro[3.5]-nonane-6,9-dione] |  |
| 2500 | CC(C)N1CC(=O)N(Cc2ccc(Cl)cc2)C2(CN(c3ccc(Cl)cc3)C2)C1=O [Compound 4, 5-(4-chlorobenzyl)-2-(4-chlorophenyl)-8-isopropyl-2,5,8-triazaspiro[3.5]-nonane-6,9-dione] |  |
| 1900 | CC(C)N1CC(=O)N(Cc2ccc(Cl)cc2)C2(CN(c3cccc(Cl)c3)C2)C1=O [Compound 5, 5-(4-chlorobenzyl)-2-(3-chlorophenyl)-8-isopropyl-2,5,8-triazaspiro[3.5]-nonane-6,9-dione] |  |
| 900 | CC(C)N1CC(=O)N(Cc2ccc(Cl)cc2)C2(CN(c3ccccn3)C2)C1=O [Compound 6, 5-(4-chlorobenzyl)-8-isopropyl-2-(pyridin-2-yl)-2,5,8-triazaspiro[3.5]-nonane-6,9-dione] |  |
| 1900 | CC(C)N1CC(=O)N(Cc2ccc(Cl)cc2)C2(CN(c3cccnc3)C2)C1=O [Compound 7, 5-(4-chlorobenzyl)-8-isopropyl-2-(pyridin-3-yl)-2,5,8-triazaspiro[3.5]-nonane-6,9-dione] |  |
| 3300 | CC(C)N1CC(=O)N(Cc2ccc(Cl)cc2)C2(CN(c3ccncc3)C2)C1=O [Compound 8, 5-(4-chlorobenzyl)-8-isopropyl-2-(pyridin-4-yl)-2,5,8-triazaspiro[3.5]-nonane-6,9-dione] |  |
| 2400 | Cc1ccc(N2CC3(C2)C(=O)N(C(C)C)CC(=O)N3Cc2ccc(Cl)cc2)nc1 [Compound 9, 5-(4-chlorobenzyl)-8-isopropyl-2-(5-methyl-pyridin-2-yl)-2,5,8-triazaspiro[3.5]nonane-6,9-dione] |  |
| 5200 | Cc1cc(N2CC3(C2)C(=O)N(C(C)C)CC(=O)N3Cc2ccc(Cl)cc2)ccn1 [Compound 10, 5-(4-chlorobenzyl)-8-isopropyl-2-(2-methyl-pyridin-4-yl)-2,5,8-triazaspiro[3.5]nonane-6,9-dione] |  |
| 17400 | CC(C)N1CC(=O)N(Cc2ccc(Cl)cc2)C2(CN(c3ncccn3)C2)C1=O [Compound 11, 5-(4-chlorobenzyl)-8-isopropyl-2-(pyrimidin-2-yl)-2,5,8-triazaspiro-[3.5]nonane-6,9-dione] |  |
| 6600 | CC(C)N1CC(=O)N(Cc2ccc(Cl)cc2)C2(CN(c3cnccn3)C2)C1=O [Compound 12, 5-(4-chlorobenzyl)-8-isopropyl-2-(pyrazin-2-yl)-2,5,8-triazaspiro-[3.5]nonane-6,9-dione] |  |
| 7100 | Cc1ncccc1N1CC2(C1)C(=O)N(C(C)C)CC(=O)N2Cc1ccc(Cl)cc1 [Compound 13, 5-(4-chlorobenzyl)-8-isopropyl-2-(2-methyl-pyridin-3-yl)-2,5,8-triazaspiro[3.5]nonane-6,9-dione] |  |
| 6000 | Cc1ccc(N2CC3(C2)C(=O)N(C(C)C)CC(=O)N3Cc2ccc(Cl)cc2)cn1 [Compound 14, 5-(4-chlorobenzyl)-8-isopropyl-2-(6-methyl-pyridin-3-yl)-2,5,8-triazaspiro[3.5]nonane-6,9-dione] |  |
| 2700 | Cc1ccnc(N2CC3(C2)C(=O)N(C(C)C)CC(=O)N3Cc2ccc(Cl)cc2)c1 [Compound 15, 5-(4-chlorobenzyl)-8-isopropyl-2-(4-methyl-pyridin-2-yl)-2,5,8-triazaspiro[3.5]nonane-6,9-dione] |  |
